Literature values as cited in patent US20100331419A1, “Combination Therapies for the Treatment of Obesity” (priority 2009, published 2010).

Conditions: literature studies of weight loss medications

Compound | weight loss of body weight for drug compared with placebo
CCCCCCCCCCC[C@@H](C[C@@H]1OC(=O)[C@H]1CCCCCC)OC(=O)[C@H](CC(C)C)NC=O [orlistat] | about 5%
CCN[C@@H](C)Cc1cccc(C(F)(F)F)c1 [dexfenfluramine] | about 5%
CC(C)CC(N(C)C)C1(c2ccc(Cl)cc2)CCC1 (stereo not drawn) [sibutramine] | about 5%
